Where a name gives a salt, the structure may show the parent alone.
Target: T1, Nav1.7 (or SCN9A) channel (Homo sapiens, UniProt Q15858)
T1 construct: expressed in transfected cells
Experiment: Nav1.7 (hSCN9A) electrophysiology assay, PatchXpress platform
Assay type: cell-based
Settings: estimated IC50 from single point electrophysiology data, HEK cells stably expressing hSCN9A, held at V1/2 of inactivation, read-out: Nav1.7 EIC50
How it was run: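 HEK cells stably expressing hSCN9A were recorded by whole-cell voltage clamp, including on PatchXpress, at 22–24°C with extracellular solution at pH 7.4. A 20 msec step to 0 mV followed an 8 s conditioning prepulse to the empirically determined inactivation V1/2. Inhibition was taken from current amplitude before vs after compound.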

T1 sequence (Q15858 whole entry): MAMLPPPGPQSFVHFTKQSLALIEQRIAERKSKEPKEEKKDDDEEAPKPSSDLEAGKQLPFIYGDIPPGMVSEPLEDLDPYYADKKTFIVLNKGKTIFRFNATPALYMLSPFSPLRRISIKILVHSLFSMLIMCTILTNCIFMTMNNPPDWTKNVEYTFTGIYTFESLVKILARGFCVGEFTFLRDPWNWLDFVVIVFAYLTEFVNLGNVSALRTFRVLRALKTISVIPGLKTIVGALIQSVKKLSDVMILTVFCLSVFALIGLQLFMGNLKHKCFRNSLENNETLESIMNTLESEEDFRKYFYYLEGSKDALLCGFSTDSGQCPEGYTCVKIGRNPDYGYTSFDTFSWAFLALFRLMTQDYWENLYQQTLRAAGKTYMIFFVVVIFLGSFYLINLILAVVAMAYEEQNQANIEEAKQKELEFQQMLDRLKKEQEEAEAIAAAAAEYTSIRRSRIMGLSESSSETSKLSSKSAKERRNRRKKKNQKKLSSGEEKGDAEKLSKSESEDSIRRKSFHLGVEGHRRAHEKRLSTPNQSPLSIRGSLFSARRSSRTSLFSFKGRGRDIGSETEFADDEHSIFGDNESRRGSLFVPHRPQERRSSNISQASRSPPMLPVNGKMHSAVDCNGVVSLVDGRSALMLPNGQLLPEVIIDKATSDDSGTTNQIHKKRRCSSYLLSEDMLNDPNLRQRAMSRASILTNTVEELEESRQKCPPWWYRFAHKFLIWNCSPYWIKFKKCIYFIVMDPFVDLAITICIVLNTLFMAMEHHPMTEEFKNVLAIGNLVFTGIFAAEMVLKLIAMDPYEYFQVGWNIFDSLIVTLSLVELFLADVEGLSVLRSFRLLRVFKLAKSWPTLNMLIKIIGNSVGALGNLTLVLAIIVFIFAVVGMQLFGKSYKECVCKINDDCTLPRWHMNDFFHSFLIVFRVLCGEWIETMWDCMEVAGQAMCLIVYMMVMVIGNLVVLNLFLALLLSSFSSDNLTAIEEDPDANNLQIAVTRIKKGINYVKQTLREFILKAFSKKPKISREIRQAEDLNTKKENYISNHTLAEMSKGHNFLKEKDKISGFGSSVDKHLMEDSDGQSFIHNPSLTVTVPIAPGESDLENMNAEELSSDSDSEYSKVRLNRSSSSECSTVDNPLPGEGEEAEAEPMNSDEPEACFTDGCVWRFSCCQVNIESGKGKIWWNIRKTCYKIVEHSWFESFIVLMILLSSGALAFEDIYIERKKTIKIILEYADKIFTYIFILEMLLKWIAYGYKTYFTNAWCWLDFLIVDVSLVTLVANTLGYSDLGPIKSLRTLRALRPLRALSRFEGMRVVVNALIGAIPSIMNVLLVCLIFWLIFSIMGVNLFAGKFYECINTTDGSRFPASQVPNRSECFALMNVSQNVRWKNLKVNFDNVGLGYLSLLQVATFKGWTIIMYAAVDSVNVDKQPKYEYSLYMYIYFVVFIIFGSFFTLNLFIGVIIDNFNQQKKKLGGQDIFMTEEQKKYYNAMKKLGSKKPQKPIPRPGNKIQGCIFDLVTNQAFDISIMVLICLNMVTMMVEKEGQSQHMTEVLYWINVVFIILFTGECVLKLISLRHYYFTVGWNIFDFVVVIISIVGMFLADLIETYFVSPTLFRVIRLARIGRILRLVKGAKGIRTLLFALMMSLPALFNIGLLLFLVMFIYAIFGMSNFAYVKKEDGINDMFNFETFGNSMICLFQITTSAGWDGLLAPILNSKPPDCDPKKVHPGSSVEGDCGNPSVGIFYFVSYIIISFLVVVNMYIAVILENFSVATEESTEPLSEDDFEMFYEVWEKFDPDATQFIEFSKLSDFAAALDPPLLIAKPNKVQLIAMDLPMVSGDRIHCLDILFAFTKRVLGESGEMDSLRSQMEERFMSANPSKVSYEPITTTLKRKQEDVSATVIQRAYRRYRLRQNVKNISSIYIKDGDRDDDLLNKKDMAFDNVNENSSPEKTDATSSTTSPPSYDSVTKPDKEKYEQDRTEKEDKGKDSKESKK

SMILES | IC50 [µM]
COc1cccc(COc2cc(F)c(C(=O)NS(C)(=O)=O)cc2F)c1OC [Example 206, 4-[(2,3-dimethoxybenzyl)oxy]-2,5-difluoro-N-(methylsulfonyl)benzamide] | > 1
CS(=O)(=O)NC(=O)c1ccc(OCc2cccc(C(F)(F)F)c2)cc1 [Example 179, N-(methylsulfonyl)-4-{[3-(trifluoromethyl)benzyl]oxy}benzamide] | > 1
CS(=O)(=O)NC(=O)c1ccc(OCc2ccccc2Cl)cc1 [Example 186, 4-[(2-chlorobenzyl)oxy]-N-(methylsulfonyl)benzamide] | 7.3
Cc1nccn1-c1ccc(COc2ccc(C(=O)NS(C)(=O)=O)cc2)cc1 [Example 22, 4-(4-(2-methyl-1H-imidazol-1-yl)benzyloxy)-N-(methylsulfonyl)benzamide] | > 3
CS(=O)(=O)NC(=O)c1ccc(COc2ccc(Cl)c(Cl)c2)c(Cl)c1 [Example 29, 3-Chloro-4-((3,4-dichlorophenoxy)methyl)-N-(methylsulfonyl)benzamide Diethylamine salt] | 0.086
CS(=O)(=O)NC(=O)c1cc(F)c(COc2ccc(Cl)cc2C#N)cc1F [Example 135, 4-[(4-chloro-2-cyanophenoxy)methyl]-2,5-difluoro-N-(methylsulfonyl)benzamide] | > 3
Cc1cc(Cl)cc(OCc2cc(F)c(C(=O)NS(C)(=O)=O)cc2F)c1 [Example 105, 4-[(3-chloro-5-methylphenoxy)methyl]-2,5-difluoro-N-(methylsulfonyl)benzamide] | 0.1
CS(=O)(=O)NC(=O)c1cc(F)c(COc2ccc(C#N)c(F)c2)cc1F [Example 127, 4-[(4-cyano-3-fluorophenoxy)methyl]-2,5-difluoro-N-(methylsulfonyl)benzamide] | 2.6
CS(=O)(=O)NC(=O)c1ccc(OCc2ccccc2-c2ccccc2)cc1 [Example 94, 4-(biphenyl-2-ylmethoxy)-N-(methylsulfonyl)benzamide] | 4.3
COc1ccc(C)cc1COc1cc(F)c(C(=O)NS(C)(=O)=O)cc1F [Example 219, 2,5-difluoro-4-[(2-methoxy-5-methylbenzyl)oxy]-N-(methylsulfonyl)benzamide] | > 1
CS(=O)(=O)NC(=O)c1cc(F)c(OCc2cc(F)ccc2F)cc1F [Example 229, 4-[(2,5-difluorobenzyl)oxy]-2,5-difluoro-N-(methylsulfonyl)benzamide] | > 1
COc1ccc(COc2cc(F)c(C(=O)NS(C)(=O)=O)cc2F)cc1Cl [Example 68, 4-(3-Chloro-4-methoxybenzyloxy)-2,5-difluoro-N-(methylsulfonyl)benzamide] | 9.8
CS(=O)(=O)NC(=O)c1cc(Cl)c(OCc2cccc(Cl)c2)cc1F [Example 86, 5-chloro-4-[(3-chlorobenzyl)oxy]-2-fluoro-N-(methylsulfonyl)benzamide] | 0.58
CS(=O)(=O)NC(=O)c1ccc(OCc2ccccc2OC(F)(F)F)c(Cl)c1 [Example 6, 3-Chloro-N-(methylsulfonyl)-4-{[2-(trifluoromethoxy)benzyl]oxy}benzamide] | 1.3
CS(=O)(=O)NC(=O)c1ccc(OCc2ccc(F)cc2Cl)cc1 [Example 171, 4-[(2-chloro-4-fluorobenzyl)oxy]-N-(methylsulfonyl)benzamide] | 2.9
CS(=O)(=O)NC(=O)c1cc(F)c(COc2ccc(F)cc2C2CC2)cc1F [Example 145, 4-[(2-cyclopropyl-4-fluorophenoxy)methyl]-2,5-difluoro-N-(methylsulfonyl)benzamide] | 2.3
CS(=O)(=O)NC(=O)c1ccc(OCc2cccc(Cl)c2Cl)cc1 [Example 189, 4-[(2,3-dichlorobenzyl)oxy]-N-(methylsulfonyl)benzamide] | 1.5
CCc1ccc(OCc2ccc(C(=O)NS(C)(=O)=O)c(C)c2)cc1 [Example 43, 4-[(4-Ethylphenoxy)methyl]-2-methyl-N-(methylsulfonyl)benzamide diethylamine salt] | 4.2
CS(=O)(=O)NC(=O)c1ccc(OCc2c(F)cccc2Cl)cc1 [Example 182, 4-[(2-chloro-6-fluorobenzyl)oxy]-N-(methylsulfonyl)benzamide] | > 1
Cc1c(OCc2cc(F)c(C(=O)NS(C)(=O)=O)cc2F)ccc(F)c1F [Example 167, 4-[(3,4-difluoro-2-methylphenoxy)methyl]-2,5-difluoro-N-(methylsulfonyl)benzamide] | 2.6
CS(=O)(=O)NC(=O)c1cc(F)c(COc2ccccc2C#N)cc1F [Example 137, 4-[(2-cyanophenoxy)methyl]-2,5-difluoro-N-(methylsulfonyl)benzamide] | > 3
CS(=O)(=O)NC(=O)c1cc(Cl)c(OCc2ccc(Cl)c(C(F)(F)F)c2)cc1F [Example 59, 5-Chloro-4-(4-chloro-3-(trifluoromethyl)benzyloxy)-2-fluoro-N-(methylsulfonyl)benzamide] | 0.014
CS(=O)(=O)NC(=O)c1cc(F)c(OCc2ccc(Cl)cc2F)cc1F [Example 231, 4-[(4-chloro-2-fluorobenzyl)oxy]-2,5-difluoro-N-(methylsulfonyl)benzamide] | 1.4

SMILES | IC50 [µM]
CS(=O)(=O)NC(=O)c1cc(Cl)c(OCc2ccc(Cl)cc2)cc1F [Example 84, 5-chloro-4-[(4-chlorobenzyl)oxy]-2-fluoro-N-(methylsulfonyl)benzamide] | 6.5
COc1cc(F)ccc1COc1cc(F)c(C(=O)NS(C)(=O)=O)cc1F [Example 215, 2,5-difluoro-4-[(4-fluoro-2-methoxybenzyl)oxy]-N-(methylsulfonyl)benzamide] | > 1
COc1cc(C#N)ccc1OCc1cc(F)c(C(=O)NS(C)(=O)=O)cc1F [Example 132, 4-[(4-cyano-2-methoxyphenoxy)methyl]-2,5-difluoro-N-(methylsulfonyl)benzamide] | > 3
CS(=O)(=O)NC(=O)c1ccc(OCc2cccc(F)c2F)cc1 [Example 170, 4-[(2,3-difluorobenzyl)oxy]-N-(methylsulfonyl)benzamide] | > 3
CC(C)c1cccc(OCc2cc(F)c(C(=O)NS(C)(=O)=O)cc2F)c1 [Example 107, 2,5-difluoro-4-[(3-isopropylphenoxy)methyl]-N-(methylsulfonyl)benzamide] | 0.33
CS(=O)(=O)NC(=O)c1ccc(OCc2ccc(Cl)cc2)c(C#N)c1 [Example 77, 4-[(4-chlorobenzyl)oxy]-3-cyano-N-(methylsulfonyl)benzamide] | > 3
COc1cc(COc2cc(F)c(C(=O)NS(C)(=O)=O)cc2F)ccc1C [Example 222, 2,5-difluoro-4-[(3-methoxy-4-methylbenzyl)oxy]-N-(methylsulfonyl)benzamide] | 3.6
COc1ccccc1COc1ccc(C(=O)NS(C)(=O)=O)cc1 [Example 169, 4-[(2-methoxybenzyl)oxy]-N-(methylsulfonyl)benzamide] | > 3
CN1CCC(c2cccc(OCc3cc(F)c(C(=O)NS(C)(=O)=O)cc3F)c2)CC1 [Example 106, 2,5-difluoro-4-{[3-(1-methylpiperidin-4-yl)phenoxy]methyl}-N-(methylsulfonyl)benzamide] | 9.2
CS(=O)(=O)NC(=O)c1cc(F)c(COc2cccc(F)c2F)cc1F [Example 111, 4-[(2,3-difluorophenoxy)methyl]-2,5-difluoro-N-(methylsulfonyl)benzamide] | > 1
CS(=O)(=O)NC(=O)c1ccc(OCc2ccc(F)cc2F)cc1 [Example 204, 4-[(2,4-difluorobenzyl)oxy]-N-(methylsulfonyl)benzamide] | 3.6
CS(=O)(=O)NC(=O)c1ccc(OCc2c(Cl)cccc2Cl)cc1 [Example 184, 4-[(2,6-dichlorobenzyl)oxy]-N-(methylsulfonyl)benzamide] | 2.6
CS(=O)(=O)NC(=O)c1cc(F)c(OCc2ccc(F)cc2)cc1F [Example 216, 2,5-difluoro-4-[(4-fluorobenzyl)oxy]-N-(methylsulfonyl)benzamide] | 3.8
CS(=O)(=O)NC(=O)c1cc(F)c(OCc2ccc(OC(F)F)cc2)cc1F [Example 211, 4-{[4-(difluoromethoxy)benzyl]oxy}-2,5-difluoro-N-(methylsulfonyl)benzamide] | 2.6
CS(=O)(=O)NC(=O)c1cc(F)c(OCc2ccc(C(F)(F)F)cc2)cc1F [Example 193, 2,5-difluoro-N-(methylsulfonyl)-4-{[4-(trifluoromethyl)benzyl]oxy}benzamide] | 4.7
CS(=O)(=O)NC(=O)c1cc(F)c(COc2ccc(Cl)cc2F)cc1F [Example 133, 4-[(4-chloro-2-fluorophenoxy)methyl]-2,5-difluoro-N-(methylsulfonyl)benzamide] | > 1
CS(=O)(=O)NC(=O)c1cc(F)c(OCc2ccc(F)cc2Cl)cc1F [Example 232, 4-[(2-chloro-4-fluorobenzyl)oxy]-2,5-difluoro-N-(methylsulfonyl)benzamide] | 2.1
CS(=O)(=O)NC(=O)c1cc(Cl)c(OCc2ccc(C(F)(F)F)c(Cl)c2)cc1F [Example 58, 5-Chloro-4-(3-chloro-4-(trifluoromethyl)benzyloxy)-2-fluoro-N-(methylsulfonyl)benzamide] | 0.021
COc1cc(Cl)ccc1OCc1ccc(C(=O)NS(C)(=O)=O)cc1 [Example 64, 4-[(4-Chloro-2-methoxyphenoxy)methyl]-N-(methylsulfonyl)benzamide] | > 3
COc1ccc(OCc2cc(F)c(C(=O)NS(C)(=O)=O)cc2F)cc1 [Example 164, 2,5-difluoro-4-[(4-methoxyphenoxy)methyl]-N-(methylsulfonyl)benzamide] | > 3
CCc1ccc(OCc2ccc(C(=O)NS(C)(=O)=O)cc2)cc1 [Example 25, 4-((4-Ethylphenoxy)methyl)-N-(methylsulfonyl)benzamide Diethylamine salt] | 0.72
Cc1ccc(OCc2cc(F)c(C(=O)NS(C)(=O)=O)cc2F)cc1Cl [Example 151, 4-[(3-chloro-4-methylphenoxy)methyl]-2,5-difluoro-N-(methylsulfonyl)benzamide] | 0.065

— patent US9096500B2, “Acyl sulfonamide compounds” (Pfizer Limited, priority 2010, dated 2015)
